In US10105326B2, “Pharmaceutical solution comprising dopamine for use in treating parkinson's disease” (CENTRE HOSPITALIER REGIONAL ET UNIVERSITAIRE DE LILLE (CHRU), priority 2014, dated 2018):

Experiments:
Type in all cases: in vivo
[1] = tested on: striatum of MPTP mice; assay: Neurotransmitter content in striatum of MPTP mice (HPLC)
Procedure: (§1) Five-month-old male C57B1/6J mice (Elevage Janvier, Le Genest St Isle, France) weighing 28-30 g were used. The mice received four intraperitoneal injections (with 2 h intervals) of saline solution containing 0 (“Saline mice”) or 20 mg/kg of MPTP (“MPTP mice”) (Sigma Aldrich, St Louis, Mo. USA). Saline or MPTP were administrated at day 0 (D0), the central continuous dopamine infusion or peripheral L-dopa treatment were delivered from 7th to the 14th day (D7 to D14), and then spontaneous locomotor measurement and sacrifice were performed at D14.

[2] = tested on: TH-ir neurons in SNpc; assay: TH-ir neurons counting in SNpc of MPTP mice
Procedure: as §1
The brains were removed and, after a post-fixation process, were cryoprotected and frozen. […]
The number of TH-ir neurons (“Tyrosine Hydroxylase-Immunoreactive») in the SNpc was assessed by counting TH-ir neurons of the left and right hemisphere in every 4th section of the SNpc of all experimental groups. […] For the unbiased quantification, a line was drawn around the SNpc of each section. […] Cells were counted with a 40× using a Nikon Eclipse E600 microscope (Tokyo, Japan). […] As no difference between left and right SNps was found, TH-ir counted neurons of both sides were pooled and for each animal, a sum of neurons counted in each section was calculated. […]

[3] = tested on: TH-ir terminals in dorsal striatum; assay: TH-ir optical density in dorsal striatum of MPTP mice; conditions: MPTP administration
[4] = tested on: MPTP mice; assay: Spontaneous motor activity (actimetry) in MPTP mice; conditions: for spontaneous locomotor activity: 7 days
Procedure: as §1
After 7 days of treatment (i.p. L-dopa or i.c.v dopamine), spontaneous motor activity was recorded in an actimeter (Panlab, Barcelona, Spain) during 10 minutes. The apparatus was a 45×45×35 cm transparent Plexiglas enclosure equipped with two frames of infrared beams. This apparatus allowed horizontal motor activity (distance traveled, speed, movement type) and rearing behavior to be measured based on infrared beams obstructions. Chosen parameters were collected by Actitrack software (Panlab, Barcelona, Spain).

[5] = peripheral L-dopa 50 and 100 mg/day

| SMILES | reduction in DOPAC content in each striatum ([1]; MPTP intoxication) | reduction in HIA content in each striatum ([1]; MPTP intoxication) | reduction in HVA content in each striatum ([1]; MPTP intoxication) | reduction in noradrenalin content in each striatum ([1]; MPTP intoxication) | reduction in serotonin content in each striatum ([1]; MPTP intoxication) | reduction in dopamine content in each striatum ([1]; MPTP intoxication, 4 x 20 mg/kg i.p.) | loss of TH-expressing neurons in the SNpc compared to saline-injected mice ([2]; MPTP administration) [%] | loss of TH-expressing neurons in the striatum compared to saline-injected mice [3] [%] | dopaminergic neurotransmission in striatum ([1]; peripheral L-dopa 25 mg/day) | serotonin and noradrenalin in both striatum ([1]; peripheral L-dopa 25 mg/day) | dopamine and metabolites in both striatum [1, 5] | serotonin and noradrenalin content [1, 5] | abnormal behaviors ([4]; high doses of L-Dopa) | spontaneous locomotor activity ([4]; peripheral L-dopa 50 mg/kg/day) | spontaneous locomotor activity ([4]; peripheral L-dopa 25 and 100 mg/day) | effect on TH-ir neurons in SNpc ([2]; L-dopa treatment, 7 days) |
| --- | --- | --- | --- | --- | --- | --- | --- | --- | --- | --- | --- | --- | --- | --- | --- | --- |
| CN1CC=C(c2ccccc2)CC1 [MPTP, 1-methyl-4-phenyl-1,2,3,6-tetrahydropyridine] | 70-80% | 20-50% | 60-70% | 35-50% | 40-40% | 85-90% | 44.3 | 38.2 |  |  |  |  |  |  |  |  |
| N[C@@H](Cc1ccc(O)c(O)c1)C(=O)O [L-dopa, L-3,4-dihydroxyphenylalanine] |  |  |  |  |  |  |  |  | no effect on dopaminergic neurotransmission | increase in serotonin and noradrenalin in both striatum | significant increase in dopamine and metabolites in both striatum | no supplemental effect on serotonin and noradrenalin content | abnormal behaviors such as dyskinesia | restored | no effect | no significant effect |
